Converted amounts (≈) assume the structure as drawn. Like-named read-outs stand apart in the source and are kept apart here.

Here are results for eleven molecules from US9120762B2, “Salts of bicyclo-substituted pyrazolon azo derivatives, preparation method and use thereof” (Jiangsu Hengrui Medicine Co., Ltd., priority 2009, dated 2015).

Data set [1] can be described thus: Pharmacokinetics assay in rats. The data set is classed as in vivo, SD rats. Conditions: SD rats, intragastric, 50 mg/Kg (as free acid); for Vd/F / AUC / CL/F / half-life / MRT / Cmax / Tmax: both sexes, rat, po; for Vd/F: read-out: Apparent Distribution Volume Vz/F; for AUC: read-out: Area Under Curve AUC; for CL/F: read-out: Clearance CL/F (converted); for half-life: read-out: Half-Life t½ (converted); for MRT: read-out: Mean Residence Time MRT; for Cmax: read-out: Plasma Conc. Cmax; for Tmax: read-out: Time to peak Tmax. On the procedure:
The compounds of the present disclosure were administrated intragastrically to rats to determine the drug concentration in plasma at different time points by HPLC-UV. The pharmacokinetic behavior of the compounds of the present disclosure was studied and evaluated in rats. […] Healthy adult SD rats, male and female in half, were purchased from SINO-BRITSH SIPPR/BK LAB.ANIMAL LTD., Colo., License number: SCXK (Shanghai) 2003-0002 The test compound was diluted with 1% sodium carboxymethyl cellulose to 5 mg/mL (calculated as the free acid form) of suspension before use. Healthy adult SD rats, male and female in half, were divided into 23 groups. […] The plasma samples were stored at −20° C. until analysis. The rats were fed 2 hours after administration. […] Then the mixture was mixed for 3 minute using a vortexer and centrifuged for 10 minutes at 13,500 rpm. 40 μL of the supernatant was analyzed by HPLC-UV. The compartmental model of pharmacokinetics was fitted for the test compounds and the major pharmacokinetic parameters were calculated in which Cmax and tmax were the actually measured values.

The nature of data set [2]: Solubility assay in water, 0.1% hydrochloric acid and methanol. It is filed as physicochemical. On the procedure: The solubility was characterized by:
The term “very soluble” refers to that 1 g (mL) of solute can be dissolved in less than 1 mL of solvent;
The term “freely soluble” refers to that 1 g (mL) of solute can be dissolved in from 1 mL to 10 mL, not including 10 mL of solvent;
The term “soluble” refers to that 1 g (mL) of solute can be dissolved in from 10 mL to 30 mL, not including 30 mL of solvent;
The term “sparingly soluble” refers to that 1g (mL) of solute can be dissolved in from 30 mL to 100 mL, not including 100 mL of solvent;
The term “slightly soluble” refers to that 1g (mL) of solute can be dissolved in from 100 mL to 1000 mL, not including 1000 mL of solvent;
The term “very slightly soluble” refers to that 1g (mL) of solute can be dissolved in from 1000 mL to 10000 mL, not including 10000 mL of solvent;
The term “practically insoluble or insoluble” refers to that 1g (mL) of solute cannot be dissolved completely in 10000 mL of solvent.

With `CC1=NN(c2ccc3c(c2)CCCC3)C(=O)/C1=N\Nc1cccc(-c2ccc(C(=O)O)o2)c1O` [Example 11, (Z)-5-(2-hydroxy-3-{N′-[3-methyl-5-oxo-1-(5,6,7,8-tetrahydro-naphthalen-2-yl)-1,5-dihydro-pyrazol-4-ylidene]-hydrazino}-phenyl)-furan-2-carboxylic acid bis-(piperazine)], in data set [1] (50 mg/kg), the “Area Under Curve AUC” value was 270 ± 178 µg·h/mL, the “Clearance CL/F” value was 0.877 ± 1.465 L/h/kg, the “Half-Life t½” value was determined as 12.1 ± 7.19 h and the “Plasma Conc. Cmax” value worked out at 40.2 ± 24.3 µg/mL. Also, in data set [1] (50 mg/kg), the “Time to peak Tmax” value was determined as 1.5 ± 0.58 h.
What is called solubility is how much of the substance goes into solution per volume. A higher solubility goes with much dissolved substance. Take `CC1=NN(c2ccc3c(c2)CCC3)C(=O)/C1=N\Nc1cccc(-c2ccc(C(=O)O)o2)c1O` [Example 18, (Z)-5-{2-hydroxy-3-[N′-(1-indan-5-yl-3-methyl-5-oxo-1,5-dihydro-pyrazol-4-ylidene)-hydrazino]-phenyl}-furan-2-carboxylic acid bis-(piperazine)]: in data set [1] (50 mg/kg), the “Area Under Curve AUC” value was 119 ± 102 µg·h/mL, the “Clearance CL/F” value stood at 0.63 ± 0.35 L/h/kg, the “Half-Life t½” value is recorded as 3.99 ± 1.60 h and the “Mean Residence Time MRT” value worked out at 5.31 ± 2.64 h. In data set [1] (50 mg/kg), the “Plasma Conc. Cmax” value was determined as 23.3 ± 11.6 µg/mL and the “Time to peak Tmax” value was 1.63 ± 1.63 h. In data set [2] (0.1% hydrochloric acid), this molecule registered a solubility below 0.001 mg/mL. In addition, the solubility in data set [2] (methanol) was found to be 6.096 mg/mL (≈ 13.7 mM). In addition, the solubility in data set [2] (water) came out at 2.741 mg/mL (≈ 6.17 mM).
By AUC is commonly meant the area under the concentration-time curve, a measure of exposure. As usually defined, the half-life is how long it takes for the measured level to halve. Usually MRT stands for the average time that molecules of a dose stay in the body. As usually defined, the Cmax is the maximum level reached in the sampled fluid or tissue. One may read the Tmax as the time from dosing to the highest level. As for `CC1=NN(c2ccc(C)c(C)c2)C(=O)/C1=N\Nc1cccc(-c2cccc(C(=O)O)c2)c1O` [Eltrombopag, eltrombopag, reference compound], in data set [1] (SD, plasma, 50 mg/kg), the Vd/F stood at 0.95 ± 0.42 L/kg, the AUC is 680 ± 255 µg·h/mL, the CL/F was 1.48 mL/min/kg and the half-life was 469 ± 80.4 min. Further, in data set [1] (SD, plasma, 50 mg/kg), the MRT is 11.2 ± 2.6 h, the Cmax was found to be 61800 ± 18700 ng/mL and the Tmax worked out at 5.5 ± 1 h.
Consider `CC1=NN(c2ccc3c(c2)CCC3)C(=O)/C1=N\Nc1cccc(-c2cccc(C(=O)O)c2)c1O` [Example 3, (Z)-2′-hydroxy-3′-[N′-(1-indan-5-yl-3-methyl-5-oxo-1,5-dihydro-pyrazol-4-ylidene)-hydrazino]-biphenyl-3-carboxylic acid bis-(piperazine)], for which, in data set [1] (50 mg/kg), the “Area Under Curve AUC” value was found to be 842 ± 185 µg·h/mL, the “Half-Life t½” value is reported as 8.87 ± 0.78 h, the “Mean Residence Time MRT” value is 13.0 ± 0.9 h and the “Plasma Conc. Cmax” value amounted to 79 ± 9.3 µg/mL. In data set [1] (SD, plasma, 50 mg/kg), the CL/F was 1.03 mL/min/kg and the Tmax came to 5.5 ± 1 h. Besides, the solubility in data set [2] (0.1% hydrochloric acid) is listed as below 0.001 mg/mL. Also, the solubility in data set [2] (methanol) amounted to 1.534 mg/mL (≈ 3.38 mM). Further, the solubility in data set [2] (water) is 2.290 mg/mL (≈ 5.04 mM).
`CC1=NN(c2ccc3c(c2)CCC3)C(=O)/C1=N\Nc1cccc(-c2cccc(C(=O)O)c2)c1O.CCNCC.CCNCC` [Example 2, (Z)-2′-hydroxy-3′-[N′-(1-indan-5-yl-3-methyl-5-oxo-1,5-dihydro-pyrazol-4-ylidene)-hydrazino]-biphenyl-3-carboxylic acid bis-(diethylamine)]: in data set [1] (in vivo), the Vd/F was 0.83 ± 0.16 L/kg, the AUC is 833 ± 64 µg·h/mL, the CL/F was 1 mL/min/kg and the half-life is 573 ± 86.4 min. For the same molecule, in data set [1] (in vivo), the MRT was 11.1 ± 0.76 h, the Cmax was determined as 83900 ± 11200 ng/mL and the Tmax is 5 ± 1.16 h.
In the case of `CC1=NN(c2ccc3c(c2)CCC3)C(=O)/C1=N\Nc1cccc(-c2csc(C(=O)O)c2)c1O.CCNCC.CCNCC` [Example 20, (Z)-4-{2-hydroxy-3-[N′-(1-indan-5-yl-3-methyl-5-oxo-1,5-dihydro-pyrazol-4-ylidene)-hydrazino]-phenyl}-thiophene-2-carboxylic acid bis-(diethylamine)], in data set [1] (in vivo), the Vd/F came to 2.05 ± 0.68 L/kg, the AUC amounted to 275 ± 116 µg·h/mL, the CL/F was 3.5 mL/min/kg and the half-life is 434 ± 147 min. In addition, in data set [1] (in vivo), the MRT is 7.59 ± 1.33 h, the Cmax was found to be 46100 ± 15700 ng/mL and the Tmax worked out at 4.5 ± 1 h.
In the case of `CC1=NN(c2ccc3c(c2)CCCC3)C(=O)/C1=N\Nc1cccc(-c2ccc(C(=O)O)o2)c1O` [Example 7d, (Z)-5-(2-hydroxy-3-{N′-[3-methyl-5-oxo-1-(5,6,7,8-tetrahydro-naphthalen-2-yl)-1,5-dihydro-pyrazol-4-ylidene]-hydrazino}-phenyl)-furan-2-carboxylic acid], in data set [1] (50 mg/kg), the “Half-Life t½” value is 7.42 ± 7.19 h, the “Plasma Conc. Cmax” value came to 16.2 ± 3.9 µg/mL and the “Time to peak Tmax” value was found to be 2.5 ± 1.0 h.
For the molecule `CC1=NN(c2ccc3c(c2)CCC3)C(=O)/C1=N\Nc1cccc(-c2csc(C(=O)O)c2)c1O` [Example 21, (Z)-4-{2-hydroxy-3-[N′-(1-indan-5-yl-3-methyl-5-oxo-1,5-dihydro-pyrazol-4-ylidene)-hydrazino]-phenyl}-thiophene-2-carboxylic acid bis-(piperazine)], in data set [1] (50 mg/kg), the “Area Under Curve AUC” value was found to be 380 ± 109 µg·h/mL, the “Clearance CL/F” value was 0.14 ± 0.04 L/h/kg, the “Half-Life t½” value is 6.86 ± 0.48 h and the “Mean Residence Time MRT” value came out at 8.61 ± 0.31 h. In addition, in data set [1] (50 mg/kg), the “Plasma Conc. Cmax” value amounted to 61.1 ± 1.38 µg/mL and the “Time to peak Tmax” value is reported as 5.5 ± 1.0 h. Further, the solubility in data set [2] (0.1% hydrochloric acid) was below 0.001 mg/mL. Also, the solubility in data set [2] (methanol) is 2.416 mg/mL (≈ 5.25 mM). The molecule further registered a solubility in data set [2] (water) of 0.814 mg/mL (≈ 1.77 mM).
On to `CC1=NN(c2ccc3c(c2)CCC3)C(=O)/C1=N\Nc1cccc(-c2ccc(C(=O)O)o2)c1O.CCNCC.CCNCC` [Example 17, (Z)-5-{2-hydroxy-3-[N′-(1-indan-5-yl-3-methyl-5-oxo-1,5-dihydro-pyrazol-4-ylidene)-hydrazino]-phenyl}-furan-2-carboxylic acid bis-(diethylamine)], for which, in data set [1] (in vivo), the Vd/F came to 8.16 ± 11.1 L/kg, the AUC was found to be 138 ± 33 µg·h/mL, the CL/F was 6.33 mL/min/kg and the half-life is 762 ± 882 min. In data set [1] (in vivo), the MRT came to 14 ± 12 h, the Cmax worked out at 21500 ± 10500 ng/mL and the Tmax is 3.38 ± 3.04 h.
As to `CC1=NN(c2ccc3c(c2)CCC3)C(=O)/C1=N\Nc1cccc(-c2csc(C(=O)O)c2)c1O.NCCO.NCCO` [Example 19, (Z)-4-{2-hydroxy-3-[N′-(1-indan-5-yl-3-methyl-5-oxo-1,5-dihydro-pyrazol-4-ylidene)-hydrazino]-phenyl}-thiophene-2-carboxylic acid bis-(ethanolamine)], in data set [1] (SD, plasma, 50 mg/kg), the Vd/F turned out to be 5.47 ± 2.72 L/kg, the AUC worked out at 89.2 ± 7.2 µg·h/mL, the CL/F is 14.7 mL/min/kg and the half-life was 343 ± 221 min. Further, in data set [1] (SD, plasma, 50 mg/kg), the MRT was 7.85 ± 2.92 h, the Cmax stood at 20800 ± 17300 ng/mL and the Tmax is 1.81 ± 2.79 h.
`CC1=NN(c2ccc3c(c2)CCC3)C(=O)/C1=N\Nc1cccc(-c2ccc(C(=O)O)o2)c1O.NCCO.NCCO` [Example 16, (Z)-5-{2-hydroxy-3-[N′-(1-indan-5-yl-3-methyl-5-oxo-1,5-dihydro-pyrazol-4-ylidene)-hydrazino]-phenyl}-furan-2-carboxylic acid bis-(ethanolamine)]: in data set [1] (SD, plasma, 50 mg/kg), the Vd/F is 6.33 ± 4.57 L/kg, the AUC stood at 52.4 ± 48 µg·h/mL, the CL/F is 32.3 mL/min/kg and the half-life was 125 ± 104 min. Moreover, in data set [1] (SD, plasma, 50 mg/kg), the MRT came to 3.84 ± 1.03 h, the Cmax is 19600 ± 16300 ng/mL and the Tmax is 2 ± 0.82 h.
